We go through one compound from patent US10026660B2, “Method of etching the back of a wafer to expose TSVs” (priority 2014, dated 2018).

As a reminder, the LD50 is the dose expected to kill half of the subjects tested. High values mean lower toxicity, low ones greater toxicity.

This data set relates to rat. As to the kind of experiment: Rat dermal exposure toxicity (LD50). As to conditions: rat dermal exposure (skin contact). An excerpt: LD50 is the dosage for 50% or more of test rats to […] after skin contact with the test chemicals in a given time. Generally, the higher the LD50, the less toxic the chemical.

In turn, `C[N+](C)(C)C.[OH-]` [TMAH, Tetramethylammonium hydroxide] registered a median lethal dose (LD50) of 157 mg/kg.
